Results on one molecule are retold here after patent US8785457B2 (Cellzome Limited, priority 2009, dated 2014).

Structures are written as SMILES.

Data set [1] concerns Delayed type hypersensitivity (DTH) reaction. Put plainly: Delayed type hypersensitivity in mice (KLH, ear thickness). It is filed as in vivo. The text has this:
The Delayed type hypersensitivity (DTH) reaction is observed when subjects are immunized with an antigen, and then subsequently challenged with the same antigen to induce a localized inflammation. The model can be inhibited by drugs affecting a range of immune and inflammatory mechanisms. In this instance, a DTH reaction is induced in mice using Keyhole Limpet Hemocyanin (KLH), measuring inflammation in the ear pinna. Keyhole Limpet Hemocyanin (KLH; Sigma, catalogue number H7017) preparation: […] Aliquots were stored at −20° C. For the first immunization (day 0) the KLH stock solution (10 mg/ml) was diluted to 0.5 mg/ml with PBS (1:20). Then a 1:1 mixture with Complete Freund's Adjuvant (CFA; Sigma catalogue number 5881) was prepared (final KLH concentration 0.25 mg/ml). For the second immunization (day 5) the KLH stock solution was diluted to 1 mg/ml with 0.9% NaCl (1:10). Mice (Balb/c ˜9 weeks of age) were immunized with 2×100 μl of a 1:1 emulsion of KLH in CFA (25 μg KLH/site) injected subcutaneously into the right and left flank. On day 5 post-injection, mice received a challenge of 10 μg KLH (in 10 μl physiological saline), injected intradermally into the right ear. On day 5, 6 and 7 the ear thickness was measured with a caliper. Measurements were performed one hour after compound administration in the morning. Compound CZC1 corresponding to example 34 of the present invention was dosed once daily orally (p.o.) from day 0 to day 7 (Table 10). Vehicle: 0.5% carboxymethylcellulose (CMC). Doses: 3, 10 and 30 mg/kg. Cyclosporine A (Calbiochem) was dosed twice daily orally (p.o., 8 am and 4 pm from day 0 to day 7). Vehicle: 5% DMSO, 0.5 CMC. Dose: 25 mg/kg. Control treatment: 5% DMSO, 0.5% CMC administered p.o. [table]

Data set [2] deals with Salmonella typhimurium strain TA1537. Put plainly: Ames plate assay, TA1537. How it is done:
(§1) Certain compounds of the invention were tested for their potential to induce gene mutations in bacterial strains of Salmonella typhimurium (strains TA1535, TA1537, TA98, TA100) and Escherichia coli (strain WP2uvrA(pKM101)) in a bacterial mutation assay in the absence and presence of metabolite activation (rat S9-mix). Compounds are tested at the following dose levels: 50, 150, 500, or 1500 μg/plate.
(§2) Vehicle control treatment is the vehicle used to prepare the test compound formulation diluted to the same extent as the test compound solution. Positive controls using known mutagens are included for each strain with and without rat S9 mix. Four plates are used for the vehicle control and two replicate plates per dose per strain for the treated groups and for each positive control. At the end of incubation the number of revertant colonies per plate are recorded and mean values calculated for each vehicle control, positive control and concentration of test compound used. Results are also expressed as a ratio of the mean values to the mean concurrent vehicle control value (i.e. fold increase).

Data set [3] deals with Salmonella typhimurium strain TA98. Put plainly: Ames plate assay, TA98. The protocol: as §1, §2

With `CCOC(=O)N1Cc2nc(-c3ccc(NC(=O)NC4CC4)cc3)nc(N3CCOC[C@@H]3C)c2C1` [Example 34, (S)-ethyl 2-(4-(3-cyclopropylureido)phenyl)-4-(3-methylmorpholino)-5H-pyrrolo[3,4-d]pyrimidine-6(7H)-carboxylate], the “increase in ear thickness” value in data set [1] (3 mg/kg p.o. once daily day 0 to day 7, 24 hours post-challenge) was “significantly reduced”; in data set [1] (10 mg/kg p.o. once daily day 0 to day 7, 24 hours post-challenge), “significantly reduced”; in data set [1] (30 mg/kg p.o. once daily day 0 to day 7, 24 hours post-challenge), “significantly reduced”. The “Ames plate assay TA1537 +S9” value is “−” in data set [2] (TA1537, +S9, 50 μg/Plate); “−” in data set [2] (TA1537, +S9, 150 μg/Plate); “−” in data set [2] (TA1537, +S9, 500 μg/Plate); “−” in data set [2] (TA1537, +S9, 1500 μg/Plate). The “Ames plate assay TA1537 −S9” value in data set [2] (TA1537, −S9, 50 μg/Plate) was “−”; in data set [2] (TA1537, −S9, 150 μg/Plate) it was “−”; in data set [2] (TA1537, −S9, 500 μg/Plate), “−”; in data set [2] (TA1537, −S9, 1500 μg/Plate), “−”. The “Ames plate assay TA98 +S9” value is “−” in data set [3] (TA98, +S9, 50 μg/Plate); “−” in data set [3] (TA98, +S9, 150 μg/Plate); “−” in data set [3] (TA98, +S9, 500 μg/Plate); “−” in data set [3] (TA98, +S9, 1500 μg/Plate). Further, the “Ames plate assay TA98 −S9” value in data set [3] (TA98, −S9, 50 μg/Plate) is “−”; in data set [3] (TA98, −S9, 150 μg/Plate), “−”; in data set [3] (TA98, −S9, 500 μg/Plate) it was “−”; in data set [3] (TA98, −S9, 1500 μg/Plate) it was “−”.
